This note sets out measurements from US9156811B2 (priority 2008, dated 2015).

The subject of one assay is OE19. Nature of the assay: In-vitro antiproliferative assay, OE19. It is filed as cell-based. The conditions noted are these: Homo sapiens, read-out: IC50 OE19.
The test system of assay [1] is Trypanosome (T. brucei brucei). Nature of the assay: In-vitro antitrypanosomal efficacy assay (cell growth, resazurin). It is filed as cell-based. The note with it: T. brucei cell growth.
Method: To column 12, 200 μl media was added to provide a no cells control. Plates were then incubated at 37° C. in an atmosphere of 5% CO2 for 69 hours, before the addition of 20 μl of 500 μM rezasurin solution, and a further incubation period of 4 hours. […] Concentration effect curves were fitted using non-linear regression using XLFit 4.2 and EC50 values determined.
For a further assay, the system named is MDA-MB-231. Nature of the assay: In-vitro antiproliferative assay, MDA-MB-231. The assay is classed as cell-based, human. The note with it: read-out: IC50 MDA-MB-231.
The next assay concerns OE21. Put plainly: In-vitro antiproliferative assay, OE21. It is filed as cell-based. The note with it: Homo sapiens, read-out: IC50 OE21.
A further assay deals with NCI-H1299. Put plainly: In-vitro antiproliferative assay, NCI-H1299. It is filed as cell-based. The note with it: Homo sapiens, read-out: IC50 NCI-H1299.
For another assay, the system named is RT112. Put plainly: In-vitro antiproliferative assay, RT112. The note with it: Homo sapiens, RT-112, 72 h, read-out: IC50 RT112.
A further assay deals with HCT116. Nature of the assay: In-vitro antiproliferative assay, HCT116. It is filed as cell-based, human. The note with it: read-out: IC50 HCT116.
The subject of another assay is SkBr3. Put plainly: In-vitro antiproliferative assay, SkBr3. The note with it: Homo sapiens, SK-BR-3, 72 h, read-out: IC50 SkBr3.
The subject of a further assay is C6. Put plainly: In-vitro antiproliferative assay, C6. The note with it: C6, 72 h, read-out: IC50 C6.
For the next assay, the system named is A549. Nature of the assay: In-vitro antiproliferative assay, A549. The conditions noted are these: Homo sapiens, A549, 72 h, read-out: IC50 A549.
The test system of another assay is HT29. Put plainly: In-vitro antiproliferative assay, HT29. The assay is classed as cell-based, human.
For a further assay, the system named is HT1080. Put plainly: In-vitro antiproliferative assay, HT1080. The conditions noted are these: Homo sapiens, HT-1080, 72 h, read-out: IC50 HT1080.
The test system of a further assay is H460. Nature of the assay: In-vitro antiproliferative assay, H460. The conditions noted are these: Homo sapiens, NCI-H460, 72 h, read-out: IC50 H460.
Another assay deals with MRC5. Nature of the assay: In-vitro antiproliferative assay, MRC5. The note with it: Homo sapiens, MRC5, 72 h, read-out: IC50 MRC5.
The target in assay [2] is T. brucei N-myristoyl transferase (Trypanosoma brucei brucei (strain 927/4 GUTat10.1), UniProt Q388H8). Nature of the assay: biochemical. The conditions noted are these: value with no enzyme tag in the cell; taken as T. brucei NMT; read-out: IC50 (μM) NMT Enzyme. It is filed as biochemical.

The structures appear in SMILES notation. Read-outs that look alike come from different tables or passages of the source.

Chain of T. brucei N-myristoyl transferase (Q388H8 1-446): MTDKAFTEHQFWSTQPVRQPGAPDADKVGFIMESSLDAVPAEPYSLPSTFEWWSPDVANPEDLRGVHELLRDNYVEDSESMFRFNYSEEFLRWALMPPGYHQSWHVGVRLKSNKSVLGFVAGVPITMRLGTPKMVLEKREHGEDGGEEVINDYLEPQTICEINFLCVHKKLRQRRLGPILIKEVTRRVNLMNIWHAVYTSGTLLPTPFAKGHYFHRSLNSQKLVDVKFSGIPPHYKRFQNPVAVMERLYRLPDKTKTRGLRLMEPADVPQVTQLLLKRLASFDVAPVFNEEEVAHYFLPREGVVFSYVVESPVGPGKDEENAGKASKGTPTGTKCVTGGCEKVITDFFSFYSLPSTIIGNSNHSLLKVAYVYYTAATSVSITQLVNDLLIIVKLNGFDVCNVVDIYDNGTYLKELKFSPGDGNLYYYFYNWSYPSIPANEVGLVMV

In the case of `Cc1nn(C)c(C)c1N[S+](=O)([O-])c1c(Cl)cc(-c2cccc(C3CCNCC3)c2)cc1Cl`, the IC50 is 4.57 µM with OE19 (OE19, 72 h); 0.89 µM in the assay on MDA-MB-231 (Homo sapiens, MDA-MB-231, 72 h); 1.2 µM in the assay with OE21 (OE21, 72 h); 3.71 µM in the assay with NCI-H1299 (NCI-H1299, 72 h). Moreover, in assay [1], the “ED50 (μM) T. brucei” value amounted to 0.02 µM.
With `Cc1nn(C)c(C)c1N[S+](=O)([O-])c1c(Cl)cc(-c2ccnc(N3CCNCC3)c2)cc1Cl` [DDD85646, 2,6-Dichloro-4-(2-piperazin-1-yl-pyridin-4-yl)-N-(1,3,5-trimethyl-1H-pyrazol-4-yl)-benzenesulfonamide], the IC50 in the assay with OE19 (OE19, 72 h) is 0.66 µM; in the assay with RT112, 0.33 µM; with HCT116 (Homo sapiens, HCT-116, 72 h), 0.234 µM; in the assay with SkBr3, 0.108 µM; in the assay on MDA-MB-231 (Homo sapiens, MDA-MB-231, 72 h), 0.23 µM; in the assay on C6, 1.16 µM. In addition, the IC50 in the assay on OE21 (OE21, 72 h) came to 0.29 µM; with NCI-H1299 (NCI-H1299, 72 h), 0.57 µM; in the assay with A549 it was 0.157 µM; in the assay with HT29 (Homo sapiens, HT-29, 72 h, read-out: IC50 HT29) it was 0.112 µM; in the assay with HT29 (Homo sapiens, HT-29, 72 h, read-out: IC50 HT-29) it was 0.112 µM; in the assay with HT1080, 0.06 µM. Besides, the IC50 with H460 amounted to 1.32 µM; in the assay on MRC5, 0.123 µM. Moreover, the “ED50 (μM) T. brucei” value in [1] was determined as 0.001 µM.
As to `Cc1nn(C)c(C)c1N[S+](=O)([O-])c1ccc(-c2cccc(CN3CCN(C)CC3)c2)cc1` [DDD86212, 3′-(4-Methyl-piperazin-1-ylmethyl)-biphenyl-4-sulfonic acid (1,3,6-trimethyl-1H-pyrazol-4-yl)-amide], the IC50 in the assay on OE19 (OE19, Table 3, 72 h, Alamar blue) was 4.37 µM; in the assay on MDA-MB-231 (Homo sapiens, MDA-MB-231, Table 3, 72 h, Alamar blue) it was 0.64 µM; in the assay on OE21 (OE21, Table 3, 72 h, Alamar blue), 1.39 µM; with NCI-H1299 (NCI-H1299, Table 3, 72 h, Alamar blue), 1.08 µM. In assay [1], the “ED50 (μM) T. brucei” value is 0.03 µM.
In the case of `Cc1c(N[S+](=O)([O-])c2c(Cl)cc(-c3ccnc(N4CCNCC4)c3)cc2Cl)c(CC(C)C)nn1C` [DDD86481, 2,6-Dichloro-N-(3-isobutyl-1,5-dimethyl-1H-pyrazol-4-yl)-4-(2-piperazin-1-yl-pyridin-4-yl)-benzenesulfonamide], the IC50 came out at 0.132 µM in the assay with OE19 (OE19, 72 h); 0.047 µM with MDA-MB-231 (Homo sapiens, MDA-MB-231, 72 h); 0.057 µM with OE21 (OE21, 72 h); 0.096 µM in the assay on NCI-H1299 (NCI-H1299, 72 h).
As for `Cc1c(N[S+](=O)([O-])c2c(Cl)cc(CCCC3CCNCC3)cc2Cl)c(CC(C)C)nn1C` [DDD90086], the “ED50 (μM) T. brucei” value in assay [1] worked out at 0.006 µM. Further, the IC50 in the assay with HCT116 (Table 4, 72 h, Alamar blue) turned out to be 0.921 µM; in the assay with MDA-MB-231 (Table 4, 72 h, Alamar blue) it was 0.537 µM; in the assay on HT29 (Table 4, 72 h, Alamar blue, read-out: IC50 HT-29), 0.281 µM; in [2], 0.004 µM.
